According to US7528148B2, “Pyrazolo[3,4-B]pyridine compounds, and their use as phosphodiesterase inhibitors” (Glaxo Group Limited, priority 2002, dated 2009):

Target: T1, PDE4B (human recombinant) (Homo sapiens, UniProt Q07343)
T1 construct: made in house; host or cells: Saccharomyces cerevisiae strain GL62 (PDE-deficient)
Assay: PDE4B inhibition, radioactive SPA or IMAP fluorescence polarisation (FP) assay
Type: biochemical
Details: one reading or average of ca. 2-6 readings, accurate only to about ±0.5 log unit, read-out: PDE4B pIC50 (±about 0.5) (converted)
Excerpt: Human recombinant PDE4B, in particular the 2B splice variant thereof (HSPDE4B2B), is disclosed in WO 94/20079 and also M. M. McLaughlin et al., “A low Km, rolipram-sensitive, cAMP-specific phosphodiesterase from human brain: cloning and expression of cDNA, biochemical characterisation of recombinant protein, and tissue distribution of mRNA”, J. Biol. Chem., 1993, 268, 6470-6476. Human recombinant PDE4B was expressed in the PDE-deficient yeast Saccharomyces cerevisiae strain GL62. 100,000×g supernatant fractions of yeast cell lysates were used for PDE4B assays and inhibitor studies.
The ability of compounds to inhibit catalytic activity at PDE4B or 4D (human recombinant), PDE3 (from bovine aorta) or PDE5 (human recombinant) or PDE6 (from bovine retina) was determined by Scintillation Proximity Assay (SPA) in 96-well format. Test compounds (preferably as a solution in DMSO, e.g. about 2 microlitre (ul) volume of DMSO solution) were preincubated at ambient temperature (room temperature, e.g. 19-23° C.) in Wallac Isoplates (code 1450-514) with PDE enzyme in 50 mM Tris-HCl buffer pH 7.5, 8.3 mM MgCl2, 1.7 mM EGTA, 0.05% (w/v) bovine serum albumin for 10-30 minutes (usually 30 minutes). The enzyme concentration was adjusted so that no more than 20% hydrolysis of the substrate defined below occurred in control wells without compound, during the incubation. For PDE3, PDE4B and PDE4D assays, [5′,8-^3H]Adenosine 3′,5′-cyclic phosphate (Amersham Pharmacia Biotech, code TRK.559; or Amersham Biosciences UK Ltd, Pollards Wood, Chalfont St Giles, Buckinghamshire HP8 4SP, UK) was added to give 0.05 uCi per well and ˜10 nM final concentration. For the PDE5 and PDE6 assay [8-^3H]Guanosine 3′,5′-cyclic phosphate (Amersham Pharmacia Biotech, code TRK.392) was added to give 0.05 uCi per well and ˜36 nM final concentration. Plates, preferably containing approx. 100 ul volume of assay mixture, were mixed on an orbital shaker for 5 minutes and incubated at ambient temperature for 1 hour. Phosphodiesterase SPA beads (Amersham Pharmacia Biotech, code RPNQ 0150) were added (˜1 mg per well) to terminate the assay. Plates were sealed and shaken and allowed to stand at ambient temperature for 35 minutes to 1 hour (preferably 35 minutes) to allow the beads to settle. Bound radioactive product was measured using a WALLAC TRILUX 1450 Microbeta scintillation counter. For inhibition curves, 10 concentrations ([…]) of each compound were assayed. Curves were analysed using ActivityBase and XLfit (ID Businesss Solutions Limited, 2 Ocean Court, Surrey Research Park, Guildford, Surrey GU2 7QB, United Kindgom) Results were expressed as pIC50 values.
The ability of compounds to inhibit catalytic activity at PDE4B (human recombinant) or PDE4D (human recombinant) was determined by IMAP Fluorescence Polarisation (FP) assay (IAP Explorer kit, available from Molecular Devices Corporation, Sunnydale, Calif., USA; Molecular Devices code: R8062) in 384-well format. The IMAP FP assay is able to measure PDE activity in an homogenous, non-radioactive assay format. The FP assay uses the ability of immobilised trivalent metal cations, coated onto nanoparticles (tiny beads), to bind the phosphate group of Fl-AMP that is produced on the hydrolysis of fluorescein-labelled (Fl) cyclic adenosine mono-phosphate (Fl-cAMP) to the non-cyclic Fl-AMP form. […] Binding of Fl-AMP product to the beads (coated with the immobilised trivalent cations) slows the rotation of the bound Fl-AMP and leads to an increase in the fluorescence polarisation ratio of parallel to perpendicular light. Inhibition of the PDE reduces/inhibits this signal increase. […]

T1 sequence (Q07343 1-564 isoform Q07343-2): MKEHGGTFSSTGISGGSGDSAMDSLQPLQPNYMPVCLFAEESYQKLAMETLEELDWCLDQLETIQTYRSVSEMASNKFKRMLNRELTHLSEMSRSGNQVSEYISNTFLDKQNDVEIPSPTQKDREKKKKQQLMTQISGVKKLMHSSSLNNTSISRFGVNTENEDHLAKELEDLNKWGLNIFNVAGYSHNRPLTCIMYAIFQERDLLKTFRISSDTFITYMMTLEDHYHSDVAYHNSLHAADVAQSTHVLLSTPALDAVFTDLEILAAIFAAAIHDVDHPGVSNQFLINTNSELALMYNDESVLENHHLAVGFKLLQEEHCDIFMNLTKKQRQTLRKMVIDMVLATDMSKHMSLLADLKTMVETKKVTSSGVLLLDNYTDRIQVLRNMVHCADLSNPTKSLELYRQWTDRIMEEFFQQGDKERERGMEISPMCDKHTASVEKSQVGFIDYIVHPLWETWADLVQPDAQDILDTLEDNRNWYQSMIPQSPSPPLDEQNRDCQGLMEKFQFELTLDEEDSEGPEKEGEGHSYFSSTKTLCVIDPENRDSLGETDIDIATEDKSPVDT

Row | SMILES | IC50 [nM]
1 | CCn1ncc2c(NC3CCCC3)c(-c3nnc(CS(C)(=O)=O)o3)cnc21 [Example 2, N-Cyclopentyl-1-ethyl-5-{5-[(methylsulfonyl)methyl]-1,3,4-oxadiazol-2-yl}-1H-pyrazolo[3,4-b]pyridin-4-amine] | 0.794 to 31.6
2 | CCn1ncc2c(NC3CCCC3)c(-c3nnc(C(C)C)s3)cnc21 [Example 6, N-Cyclopentyl-1-ethyl-5-(5-isopropyl-1,3,4-thiadiazol-2-yl)-1H-pyrazolo[3,4-b]pyridin-4-amine] | 7.94
3 | CCn1ncc2c(Nc3ccc(F)cc3)c(-c3nc(C)no3)cnc21 [Example 7, 1-Ethyl-N-(4-fluorophenyl)-5-(3-methyl-1,2,4-oxadiazol-5-yl)-1H-pyrazolo[3,4-b]pyridin-4-amine] | 63.1 to 251
4 | CCn1ncc2c(NC3CCCCC3)c(-c3nnc(C(C)C)o3)cnc21 [Example 10, N-Cyclohexyl-1-ethyl-5-(5-isopropyl-1,3,4-oxadiazol-2-yl)-1H-pyrazolo[3,4-b]pyridin-4-amine] | 6.31
5 | CCn1ncc2c(NCC(C)C)c(-c3nnc(C)o3)cnc21 [Example 12, 1-Ethyl-N-isobutyl-5-(5-methyl-1,3,4-oxadiazol-2-yl)-1H-pyrazolo[3,4-b]pyridin-4-amine] | 12.6
6 | CCn1ncc2c(NC3CCCCC3)c(-c3nnc(CS(C)(=O)=O)o3)cnc21 [Example 24, N-Cyclohexyl-1-ethyl-5-{5-[(methylsulfonyl)methyl]-1,3,4-oxadiazol-2-yl}-1H-pyrazolo[3,4-b]pyridin-4-amine] | 6.31
7 | CCn1ncc2c(N[C@@H](C)C(C)C)c(-c3nnc(CS(C)(=O)=O)o3)cnc21 [Example 26, N-[(1S)-1,2-dimethylpropyl]-1-ethyl-5-{5-[(methylsulfonyl)methyl]-1,3,4-oxadiazol-2-yl}-1H-pyrazolo[3,4-b]pyridin-4-amine] | 0.794 to 31.6

Continued, values first:

Row | IC50 [nM] | SMILES
8 | 0.794 to 31.6 | CCn1ncc2c(NC3CCOCC3)c(-c3nnc(C4(C)COC4)o3)cnc21 [Example 34, 1-Ethyl-5-[5-(3-methyloxetan-3-yl)-1,3,4-oxadiazol-2-yl]-N-(tetrahydro-2H-pyran-4-yl)-1H-pyrazolo[3,4-b]pyridin-4-amine]
9 | 0.794 to 31.6 | CCn1ncc2c(NC3CCOCC3)c(-c3nnc(CN4CCOCC4)o3)cnc21 [Example 39, 1-Ethyl-5-[5-(morpholin-4-ylmethyl)-1,3,4-oxadiazol-2-yl]-N-(tetrahydro-2H-pyran-4-yl)-1H-pyrazolo[3,4-b]pyridin-4-amine]
10 | 5.01 | CCn1ncc2c(NC3CCOCC3)c(C3=NC(C)CO3)cnc21 (centres unmarked) [Example 42, 1-Ethyl-5-(4-methyl-4,5-dihydro-1,3-oxazol-2-yl)-N-(tetrahydro-2H-pyran-4-yl)-1H-pyrazolo[3,4-b]pyridin-4-amine]
11 | 63.1 to 251 | CCCn1ncc2c(NC3CCOCC3)c(-c3nnc(C)o3)cnc21 [Example 43, 1-n-Propyl-5-(5-methyl-1,3,4-oxadiazol-2-yl)-N-(tetrahydro-2H-pyran-4-yl)-1H-pyrazolo[3,4-b]pyridin-4-amine]
12 | 0.794 to 31.6 | CCn1ncc2c(NC3CCOCC3)c(-c3nnc(C4CCCO4)o3)cnc21 (centres unmarked) [Example 44, 1-Ethyl-5-[5-(tetrahydrofuran-2-yl)-1,3,4-oxadiazol-2-yl]-N-(tetrahydro-2H-pyran-4-yl)-1H-pyrazolo[3,4-b]pyridin-4-amine]
13 | 63.1 to 251 | CCn1ncc2c(NC3CCN(C(C)=O)CC3)c(-c3nc(CN4CCOCC4)no3)cnc21 [Example 48, N-(1-Acetylpiperidin-4-yl)-1-ethyl-5-[3-(morpholin-4-ylmethyl)-1,2,4-oxadiazol-5-yl]-1H-pyrazolo[3,4-b]pyridin-4-amine]
14 | 0.794 to 31.6 | CCn1ncc2c(NC3CCOCC3)c(C3=N[C@@H](c4ccccc4)CO3)cnc21 [Example 50, 1-Ethyl-5-[(4S)-4-phenyl-4,5-dihydro-1,3-oxazol-2-yl]-N-(tetrahydro-2H-pyran-4-yl)-1H-pyrazolo[3,4-b]pyridin-4-amine]
